Among the data in ChEMBL document CHEMBL1201862, “PubChem BioAssay data set” (2004) are IC50 values, retold here.

Activity calls are given as the source filed them. Cut-off read from the data, not from the text of the source: actives have a measured IC50 and inactives only a lower limit.

By IC50 is commonly meant the concentration at which inhibition is half-maximal.

Chain of Envelope glycoprotein gp160 (Q6QLK5 whole entry, the tested form may be a part): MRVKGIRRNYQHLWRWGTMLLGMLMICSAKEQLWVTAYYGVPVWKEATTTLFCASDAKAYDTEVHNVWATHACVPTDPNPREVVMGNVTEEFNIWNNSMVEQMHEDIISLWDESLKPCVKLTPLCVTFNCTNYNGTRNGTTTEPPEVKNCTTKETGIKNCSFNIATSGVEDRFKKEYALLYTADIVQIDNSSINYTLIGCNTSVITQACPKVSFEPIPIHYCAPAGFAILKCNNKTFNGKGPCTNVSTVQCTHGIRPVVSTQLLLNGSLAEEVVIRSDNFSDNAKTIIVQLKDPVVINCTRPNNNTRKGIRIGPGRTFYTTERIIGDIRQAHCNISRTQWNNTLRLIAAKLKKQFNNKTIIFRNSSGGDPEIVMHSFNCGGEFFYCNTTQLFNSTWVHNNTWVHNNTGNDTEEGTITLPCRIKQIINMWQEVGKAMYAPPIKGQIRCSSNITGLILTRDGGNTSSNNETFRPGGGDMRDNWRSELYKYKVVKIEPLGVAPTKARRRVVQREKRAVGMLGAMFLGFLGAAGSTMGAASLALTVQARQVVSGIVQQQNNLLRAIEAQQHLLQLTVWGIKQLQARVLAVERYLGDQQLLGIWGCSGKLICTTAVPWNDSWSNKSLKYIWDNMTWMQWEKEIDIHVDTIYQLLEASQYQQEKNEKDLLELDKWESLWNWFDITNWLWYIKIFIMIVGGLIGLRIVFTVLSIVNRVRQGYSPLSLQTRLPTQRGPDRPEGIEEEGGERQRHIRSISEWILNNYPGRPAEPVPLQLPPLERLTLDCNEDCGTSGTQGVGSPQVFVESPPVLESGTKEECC

This assay has as its target Envelope glycoprotein gp160 (Human immunodeficiency virus 1, UniProt Q6QLK5). Kind of assay: cell-free HIV fusion peptide-binding blockers – biochemical, uHTS, fluorescence dequenching, […] (AID 1986).
Consider `O=C(CCN1C(=O)/C(=C/c2cccs2)SC1=S)Nc1ccc(C(=O)O)c(O)c1`, for which the IC50 was 11.6 µM (active). In the case of `O=C(O)c1cc(-c2ccc(/C=N/Nc3ccc(Cl)cc3)o2)ccc1Cl`, the half-maximal inhibitory concentration (IC50) was 24.1 µM (active).

Consider `COc1cccc(OCCOc2ccc(/C=C3\C(=N)N4N=C(S(C)(=O)=O)SC4=NC3=O)cc2OC)c1`, for which the half-inhibitory concentration (IC50) is 43.8 µM (active). Consider `N#Cc1c(SCC(=O)Nc2nc3ccc(Br)cc3s2)sc2c(O)cc(=O)[nH]c12`, for which the IC50 was 11 µM (active). The value for `Cc1oc2c(cc(NS(=O)(=O)c3ccc(C(C)C)cc3)c3ccccc32)c1C(=O)O` was 14.8 µM (active).
